Read-outs that look alike come from different tables or passages of the source.
Legend:
Type in all cases: cell-based
hGLP-1R = hGLP-1R (Homo sapiens, UniProt P43220); assay: Functional cAMP formation (HTRF) in HEK-293 clonal cells expressing hGLP-1R, 0.1% bovine casein, without or with 1.0% human serum albumin; design: expressed in transfected cells; conditions: for EC50: cAMP, 0.1% bovine casein (no human serum albumin), geometric mean
How it was run: (§1)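 Readings of the HTRF 665/620 nm ratio, which falls as cAMP rises, were converted to nM cAMP using a standard curve after 30 min peptide exposure at 37° C.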

hGCGR = target: T1, hGCGR (Homo sapiens, UniProt P47871); assay: Functional cAMP formation (HTRF) in HEK-293 clonal cells expressing hGCGR, 0.1% bovine casein, without or with 1.0% human serum albumin; conditions: cAMP
T1 construct: expressed in transfected cells
T1 sequence (P47871 26-477): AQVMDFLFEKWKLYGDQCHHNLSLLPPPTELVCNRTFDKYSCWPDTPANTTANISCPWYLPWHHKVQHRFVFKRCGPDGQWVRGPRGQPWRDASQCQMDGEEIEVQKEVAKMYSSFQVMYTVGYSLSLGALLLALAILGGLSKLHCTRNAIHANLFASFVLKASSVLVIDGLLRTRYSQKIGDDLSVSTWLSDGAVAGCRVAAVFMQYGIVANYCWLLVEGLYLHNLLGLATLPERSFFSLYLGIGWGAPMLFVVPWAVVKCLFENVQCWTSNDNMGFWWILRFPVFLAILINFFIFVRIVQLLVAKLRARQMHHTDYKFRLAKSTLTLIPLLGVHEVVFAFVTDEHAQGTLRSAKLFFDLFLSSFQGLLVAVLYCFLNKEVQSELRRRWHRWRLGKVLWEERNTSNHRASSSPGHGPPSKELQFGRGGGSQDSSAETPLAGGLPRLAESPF
How it was run: as §1

hGIPR = target: T2, hGIPR (Homo sapiens, UniProt P48546); assay: Functional cAMP formation (HTRF) in HEK-293 clonal cells expressing hGIPR, 0.1% bovine casein, without or with 1.0% human serum albumin; conditions: for EC50: cAMP
T2 construct: expressed in transfected cells
T2 sequence (P48546 22-466): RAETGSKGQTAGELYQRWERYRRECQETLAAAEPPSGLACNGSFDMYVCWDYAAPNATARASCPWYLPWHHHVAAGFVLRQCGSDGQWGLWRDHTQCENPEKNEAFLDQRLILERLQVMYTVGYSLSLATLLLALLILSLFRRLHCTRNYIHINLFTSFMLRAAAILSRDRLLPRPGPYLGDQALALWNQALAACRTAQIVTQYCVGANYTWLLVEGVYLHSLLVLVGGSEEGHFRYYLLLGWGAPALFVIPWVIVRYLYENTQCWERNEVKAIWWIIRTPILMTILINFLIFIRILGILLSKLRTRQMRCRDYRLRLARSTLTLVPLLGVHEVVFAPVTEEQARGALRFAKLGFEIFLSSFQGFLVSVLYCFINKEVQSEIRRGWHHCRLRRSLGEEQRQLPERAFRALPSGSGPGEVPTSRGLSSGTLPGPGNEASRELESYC
How it was run: as §1

[1] = HEK293, read-out: hGLP-1R Emax, % ± SEM, cAMP, 37° C., 0.1% bovine casein and 1.0% human serum albumin, percent of maximal response to GLP-1(7-36)NH2
[2] = hGLP-1R EC50, nM (SEM, n), 37° C.
[3] = hGCGR EC50, nM (SEM, n), 37° C., 0.1% bovine casein (no human serum albumin), geometric mean
[4] = hGCGR EC50, nM (SEM, n), 37° C., 0.1% bovine casein and 1.0% human serum albumin, geometric mean (SEM, n)
[5] = HEK293, read-out: hGIPR Emax, % ± SEM, cAMP, 37° C., 0.1% bovine casein and 1.0% human serum albumin, percent of maximal response to GIP(1-42)NH2
[6] = HEK293, read-out: hGIPR Emax, % ± SEM, cAMP, 37° C., 0.1% bovine casein, percent of maximal response to GIP(1-42)NH2, arithmetic mean
[7] = hGIPR EC50, nM (SEM, n), 37° C., 0.1% bovine casein (no human serum albumin), geometric mean
[8] = hGIPR EC50, nM (SEM, n), 37° C., 0.1% bovine casein and 1.0% human serum albumin, geometric mean (SEM, n)

Sequence of hGLP-1R (P43220 24-463): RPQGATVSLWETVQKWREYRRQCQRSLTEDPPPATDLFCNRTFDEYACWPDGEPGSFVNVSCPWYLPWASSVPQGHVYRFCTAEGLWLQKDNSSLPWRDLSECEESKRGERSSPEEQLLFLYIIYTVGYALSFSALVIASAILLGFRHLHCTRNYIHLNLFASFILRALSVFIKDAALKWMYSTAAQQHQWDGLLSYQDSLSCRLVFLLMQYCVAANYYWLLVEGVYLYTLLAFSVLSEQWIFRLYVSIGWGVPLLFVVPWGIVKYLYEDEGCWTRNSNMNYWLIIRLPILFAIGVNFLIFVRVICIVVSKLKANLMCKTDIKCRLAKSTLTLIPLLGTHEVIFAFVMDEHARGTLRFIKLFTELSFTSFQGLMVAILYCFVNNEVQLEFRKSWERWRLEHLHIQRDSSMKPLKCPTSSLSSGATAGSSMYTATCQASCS

CC[C@H](C)[C@H](NC(=O)[C@H](CCCN)NC(=O)[C@H](CC(=O)O)NC(=O)[C@H](CC(C)C)NC(=O)[C@](C)(CC(C)C)NC(=O)[C@@H](NC(=O)C(C)(C)NC(=O)[C@H](Cc1ccc(O)cc1)NC(=O)[C@H](CC(=O)O)NC(=O)[C@H](CO)NC(=O)[C@@H](NC(=O)[C@](C)(Cc1ccccc1F)NC(=O)[C@@H](NC(=O)CNC(=O)[C@H](CCC(=O)O)NC(=O)C(C)(C)NC(=O)[C@@H](N)Cc1ccc(O)cc1)[C@@H](C)O)[C@@H](C)O)[C@@H](C)CC)C(=O)N[C@@H](C)C(=O)N[C@@H](CCC(N)=O)C(=O)NC(C)(C)C(=O)N[C@@H](CCC(=O)O)C(=O)N[C@@H](Cc1ccccc1)C(=O)N[C@H](C(=O)N[C@@H](CCCCNC(=O)COCCOCCNC(=O)CC[C@H](NC(=O)CCCCCCCCCOc1ccc(C(=O)O)cc1)C(=O)O)C(=O)N[C@@](C)(Cc1ccc(O)cc1)C(=O)N[C@@H](CC(C)C)C(=O)N[C@H](C(=O)N[C@@H](CCCCNC(=O)COCCOCCNC(=O)CC[C@H](NC(=O)CCCCCCCCCOc1ccc(C(=O)O)cc1)C(=O)O)C(=O)NCC(=O)NCC(=O)N1CCC[C@H]1C(=O)N[C@@H](CO)C(=O)N[C@@H](CO)C(=O)NCC(=O)N[C@@H](C)C(=O)N1CCC[C@H]1C(=O)N1CCC[C@H]1C(=O)N1CCC[C@H]1C(=O)N[C@@H](CO)C(N)=O)[C@@H](C)CC)[C@@H](C)CC [Example 375] was tested, and the Emax (hGLP-1R; [1]) was 113%, the EC50 (hGLP-1R; [2]) was 1.11 nM and the EC50 (hGCGR; [3]) was greater than 9950 nM. For the same molecule, the EC50 (hGCGR; [4]) was greater than 9950 nM, the Emax (hGIPR; [5]) was 85.4% and the Emax (hGIPR; [6]) was 100%. It also gave an EC50 (hGIPR; [7]) of 0.0566 nM and an EC50 (hGIPR; [8]) of 4.68 nM.
CC[C@H](C)[C@H](NC(=O)[C@H](CC(C)C)NC(=O)[C@](C)(Cc1ccc(O)cc1)NC(=O)[C@H](CCCCNC(=O)COCCOCCNC(=O)COCCOCCNC(=O)[C@@H](N)CCCCNC(=O)CCCCCCCCCCCCC(=O)O)NC(=O)[C@@H](NC(=O)[C@H](Cc1ccccc1)NC(=O)[C@H](CCC(=O)O)NC(=O)C(C)(C)NC(=O)[C@H](CCC(N)=O)NC(=O)[C@H](C)NC(=O)[C@H](CCCCNC(=O)COCCOCCNC(=O)COCCOCCNC(=O)[C@@H](N)CCCCNC(=O)CCCCCCCCCCCCC(=O)O)NC(=O)[C@H](CCCN)NC(=O)[C@H](CC(=O)O)NC(=O)[C@H](CC(C)C)NC(=O)[C@](C)(CC(C)C)NC(=O)[C@@H](NC(=O)C(C)(C)NC(=O)[C@@H](NC(=O)[C@H](CC(=O)O)NC(=O)[C@H](CO)NC(=O)[C@@H](NC(=O)[C@](C)(Cc1ccccc1F)NC(=O)[C@@H](NC(=O)CNC(=O)[C@H](CCC(=O)O)NC(=O)C(C)(C)NC(=O)[C@@H](N)Cc1ccc(O)cc1)[C@@H](C)O)[C@@H](C)O)C(C)C)[C@@H](C)CC)[C@@H](C)CC)C(=O)N[C@@H](CCC(=O)O)C(=O)NCC(=O)NCC(=O)N1CCC[C@H]1C(=O)N[C@@H](CO)C(=O)N[C@@H](CO)C(=O)NCC(=O)N[C@@H](C)C(=O)N1CCC[C@H]1C(=O)N1CCC[C@H]1C(=O)N1CCC[C@H]1C(=O)N[C@@H](CO)C(N)=O [Example 166] showed an Emax (hGLP-1R; HEK293, read-out: hGLP-1R Emax, % ± SEM, percent of maximal response to GLP-1(7-36)NH2, 37° C., 0.1% bovine casein, arithmetic mean) of 90.3%, an EC50 (hGLP-1R; hGLP-1R EC50, nM (SEM, n), incubated at 37° C.) of 0.192 nM and an EC50 (hGCGR; hGCGR EC50, nM (SEM, n), incubated at 37° C., 0.1% bovine casein (no human serum albumin), geometric mean) greater than 9950 nM. The Emax (hGIPR; HEK293, read-out: hGIPR Emax, % ± SEM, percent of maximal response to GIP(1-42)NH2, 37° C., 0.1% bovine casein, arithmetic mean) was 97%.
CC[C@H](C)[C@H](NC(=O)[C@H](CC(C)C)NC(=O)[C@](C)(Cc1ccc(O)cc1)NC(=O)[C@@H](CCC(=O)O)NC(=O)[C@@H](NC(=O)[C@H](Cc1ccccc1)NC(=O)[C@H](CCC(=O)O)NC(=O)C(C)(C)NC(=O)[C@H](CCC(N)=O)NC(=O)[C@H](C)NC(=O)[C@H](CCCCNC(=O)COCCOCCNC(=O)CC[C@H](NC(=O)CCCCCCCCCCCCC(=O)O)C(=O)O)NC(=O)[C@H](CCCN)NC(=O)[C@H](CC(=O)O)NC(=O)[C@H](CC(C)C)NC(=O)[C@](C)(CC(C)C)NC(=O)[C@@H](NC(=O)C(C)(C)NC(=O)[C@@H](NC(=O)[C@H](CC(=O)O)NC(=O)[C@H](CO)NC(=O)[C@@H](NC(=O)[C@](C)(Cc1ccccc1F)NC(=O)[C@@H](NC(=O)CNC(=O)[C@H](CCC(=O)O)NC(=O)C(C)(C)NC(=O)[C@@H](N)Cc1ccc(O)cc1)[C@@H](C)O)[C@@H](C)O)C(C)C)[C@@H](C)CC)[C@@H](C)CC)C(=O)N[C@@H](CCCCNC(=O)COCCOCCNC(=O)CC[C@H](NC(=O)CCCCCCCCCCCCC(=O)O)C(=O)O)C(=O)NCC(=O)NCC(=O)N1CCC[C@H]1C(=O)N[C@@H](CO)C(=O)N[C@@H](CO)C(=O)NCC(=O)N[C@@H](C)C(=O)N1CCC[C@H]1C(=O)N1CCC[C@H]1C(=O)N1CCC[C@H]1C(=O)N[C@@H](CO)C(N)=O [Example 399] was tested, and the Emax (hGLP-1R; HEK293, cAMP, 37° C., 0.1% bovine casein and 1.0% human serum albumin, percent of maximal response to GLP-1(7-36)NH2, read-out: hGLP-1R Emax, % ± SEM) was 89.7%, the Emax (hGLP-1R; HEK293, cAMP, 37° C., 0.1% bovine casein, percent of maximal response to GLP-1(7-36)NH2, arithmetic mean, read-out: hGLP-1R Emax, % ± SEM) was 91.9% and the EC50 (hGLP-1R; 37° C., read-out: hGLP-1R EC50, nM (SEM, n)) was 0.259 nM. The EC50 (hGCGR; 37° C., 0.1% bovine casein (no human serum albumin), geometric mean, read-out: hGCGR EC50, nM (SEM, n)) was greater than 9950 nM, the EC50 (hGCGR; 37° C., 0.1% bovine casein and 1.0% human serum albumin, geometric mean (SEM, n), read-out: hGCGR EC50, nM (SEM, n)) was greater than 9950 nM and the Emax (hGIPR; HEK293, cAMP, 37° C., 0.1% bovine casein and 1.0% human serum albumin, percent of maximal response to GIP(1-42)NH2, read-out: hGIPR Emax, % ± SEM) was 86.8%. The EC50 (hGIPR; 37° C., 0.1% bovine casein (no human serum albumin), geometric mean, read-out: hGIPR EC50, nM (SEM, n)) was 0.0186 nM.
For CC[C@H](C)[C@H](NC(=O)[C@H](CC(C)C)NC(=O)[C@](C)(Cc1ccc(O)cc1)NC(=O)[C@@H](CCC(=O)O)NC(=O)[C@@H](NC(=O)[C@H](Cc1ccccc1)NC(=O)[C@H](CCC(=O)O)NC(=O)C(C)(C)NC(=O)[C@H](CCC(N)=O)NC(=O)[C@H](C)NC(=O)[C@H](CCCCNC(=O)COCCOCCNC(=O)COCCOCCNC(=O)CCCCCCCCCOc1ccc(C(=O)O)cc1)NC(=O)[C@H](CCCN)NC(=O)[C@H](CC(=O)O)NC(=O)[C@H](CC(C)C)NC(=O)[C@](C)(CC(C)C)NC(=O)[C@@H](NC(=O)C(C)(C)NC(=O)[C@H](Cc1ccc(O)cc1)NC(=O)[C@H](CC(=O)O)NC(=O)[C@H](CO)NC(=O)[C@@H](NC(=O)[C@](C)(Cc1ccccc1F)NC(=O)[C@@H](NC(=O)CNC(=O)[C@H](CCC(=O)O)NC(=O)C(C)(C)NC(=O)[C@@H](N)Cc1ccc(O)cc1)[C@@H](C)O)[C@@H](C)O)[C@@H](C)CC)[C@@H](C)CC)C(=O)N[C@@H](CCCCNC(=O)COCCOCCNC(=O)COCCOCCNC(=O)CCCCCCCCCOc1ccc(C(=O)O)cc1)C(=O)NCC(=O)NCC(=O)N1CCC[C@H]1C(=O)N[C@@H](CO)C(=O)N[C@@H](CO)C(=O)NCC(=O)N[C@@H](C)C(=O)N1CCC[C@H]1C(=O)N1CCC[C@H]1C(=O)N1CCC[C@H]1C(=O)N[C@@H](CO)C(N)=O [Example 396], the Emax (hGLP-1R; [1]) was 94.4%, the EC50 (hGLP-1R; [2]) was 0.291 nM and the EC50 (hGCGR; [3]) was greater than 9950 nM. The EC50 (hGCGR; [4]) was greater than 9950 nM, the Emax (hGIPR; [5]) was 67.1% and the Emax (hGIPR; [6]) was 96.2%. For the same molecule, the EC50 (hGIPR; [7]) was 0.0113 nM and the EC50 (hGIPR; [8]) was 0.595 nM.

Source: patent US20230265151A1, “GIP/GLP1 CO-AGONIST COMPOUNDS” (priority 2020, published 2023)
